Assay results as given in patent US5961978A, “Therapeutically useful peptides and peptide fragments” (Norsk Hydro, a.s., priority 1991, dated 1999).
Where no end group is shown, it is not given here.

Key:
[1] = biological target: DQw6; assay: Inhibition of binding of iodinated indicator peptide P104 to affinity purified HLA DQw6; parameters: species or system human; details: tested 0,33-10 μM
[2] = test system: T cell clone E; assay: T cell proliferation assay, clone E; assay type: cell-based, human
Protocol: (§1) FIG. 2 and FIGS. 2a-2e show the specificity of the T cell clones I, B, E and F in T cell proliferation assays. Assays were set up in triplicate in 96 well plates, with the five peptides present in the original peptide mixture as stimulating antigens. The wells contained 50000 irradiated (8000 R) autologous EBV transformed B cells as antigen presenting cells (APC).
(§2) Cultures were incubated for 2 days at 37° C. in a 5% CO2 incubator, and pulsed overnight with 1 μCi of ^3 H-thymidine (Amersham, England) per well before harvesting onto glass fibre filters by an automated cell harvester (Scatron, Lierbyen, Norway). Thymidine incorporation into DNA was quantitated by liquid scintillation counting using an LKB 1205 Betaplate Liquid Scintillation counter. Data are given as medians of triplicate cultures. Controls included T cell clones cultured alone, or with APC in the absence of peptides. The panels are scaled according to the magnitude of the positive response.
The conditions of the assay were as described in FIG. 2. […]

[3] = test system: T cell clone F; assay: T cell proliferation assay, clone F; assay type: cell-based, human; details: for stimulation of clone F by truncated forms of peptide 45: 10 μmolar
Protocol: as §1, §2
The conditions of the assay were exactly as described in FIG. 6.
The peptide concentration was as given in the Figure, and the conditions of the assay were otherwise as described for FIG. 6.

[4] = test system: HLA-DQ; assay: Peptide inhibition study, clone E as indicator responder cell (binding of peptide 43 to HLA-DQ); assay type: cell-based, human; details: FIG. 7; 5 μmolar peptide 43, 250 μmolar inhibitory peptide
Excerpt: Conditions are otherwise as described in FIG. 4.
Five μmolar concentration of stimulatory peptide (peptide 43) and 250 μmolar of the inhibitory peptides were used. Conditions were otherwise as described in FIG. 4. Note: Peptide 65 and 81 are non-stimulatory in a concentration of 10 μmolar (FIG. 6), but are stimulatory in a concentration of 250 μmolar.
In order to map peptide binding to HLA-DR and HLA-DQ, we tested the non-stimulatory p21 ras peptides for capacity to inhibit the binding of peptide 42 to HLA-DR, using stimulation of clone I as indicator system, and inhibition of peptide 43 binding to HLA-DQ using stimulation of clone E as an indicator system.

[5] = test system: DR1; assay type: binding, human; details: indicator iodinated P34, tested 0,33-10 μM

## VVVGAAGVGKSA [p91]
[1]
  IC50: 1.29 µM

## VVGAGVVGKSALAL [compound 65, N-terminally truncated form of peptide 43]
[2]; 10 μmolar
  stimulation of clone E by truncated forms of peptide 43: non-stimulatory
[2]; 250 μmolar
  stimulation of clone E by truncated forms of peptide 43: become stimulatory
[2]; 250 μmolar, listed as Peptide 65
  stimulation of clone E by truncated forms of peptide 43: stimulatory

## VVVGAAGVGKS [P89]
[1]
  IC50: 10 µM

## VVGAAGVGKSA [p90]
[1]
  IC50: 9.98 µM

## VVVGAAGVGKSALAL [compound 69, N-terminally truncated form of peptide 45]
[3]
  stimulation of clone F by truncated forms of peptide 45: stimulate

## VGAGVVGKSALAL [compound 66, N-terminally truncated form of peptide 43]
[4]
  inhibition of clone E response to peptide 43 by truncated peptides: inhibit

## VVGAAGVGKSALAL [compound 70, N-terminally truncated form of peptide 45]
[3]
  stimulation of clone F by truncated forms of peptide 45: stimulate

## GAGVVGKSALAL [compound 67, N-terminally truncated form of peptide 43]
[4]
  inhibition of clone E response to peptide 43 by truncated peptides: inhibit

## VVVGAGVVGKSALAL [compound 64, N-terminally truncated form of peptide 43]
[2]; 10 μmolar
  stimulation of clone E by truncated forms of peptide 43: stimulate

## AGVVGKSALAL [compound 68, N-terminally truncated form of peptide 43]
[4]
  inhibition of clone E response to peptide 43 by truncated peptides: inhibit

## P104: printed Y----------- (SEQ ID NO. 93); iodinated P104 was the indicator peptide for binding to DQw6 (YVVVGAAGVGKSA; also: iodinated) [reference compound]
[5]
  IC50: 0.78 µM
[1]
  IC50: < 0.33 µM

## VVGAAGVGKS [P88]
[3]; FIG. 16
  dose-response of clone F, potency compared to peptide 45: far less potent
[1]
  IC50: 8.97 µM
